Measured values: patent publication EP4104902B1, “COMPOUNDS AND M[…] SAME” (priority 2020, dated 2021)

Each molecule was assayed on recombinant rabies virus 1088 strain expressing Gaussia Luciferase (GLuc) (1088/GLuc). Conditions: read-out: Anti-rabies activity.
Format: cell-based
In the case of `O=C(O)CCN1CC2CC3(C(=O)NCCO)NCC2C1C3Cc1cccc2ccccc12` (stereo not drawn) [IF-452], the IC50 is reported as 10 to 30 µM. With `CC(C)CC[C@@H]1[C@@H]2[C@@H]3CN[C@@]1(C(=O)NCCO)C[C@@H]3CN2Cc1ccc(F)cc1` (relative stereo) [IF-490] the IC50 was 10 to 30 µM. With `CCCCCCNC(=O)[C@]12NC[C@@H]3C[C@H]1CN(CCCNC(=N)N)[C@H]2[C@@H]3CCc1ccccc1` (relative stereo) [IB-174] the IC50 was 10 to 30 µM. `O=C(NCCc1ccccc1)[C@@]12C[C@@H]3CN(Cc4ccc(O)cc4)[C@@H]([C@@H]3CN1)[C@H]2Cc1cccc2ccccc12` (relative stereo) [IF-580] gave an IC50 of 10 to 30 µM. Work on `CC(C)CCN1CC2CC3(C(=O)NCc4ccccc4)NCC2C1C3Cc1ccccc1` (stereo not drawn) [IF-9] yielded an IC50 of 10 to 30 µM. With `CCCCCCNC(=O)[C@@]12C[C@@H]3CN(CC(C)C)[C@@H]([C@@H]3CN1)[C@H]2CC(C)C` (relative stereo) [IF-569] the IC50 was 10 to 30 µM. Work on `CC(C)CN1C[C@@H]2C[C@H]3CN[C@]2(C(=O)NCCc2ccccc2)[C@@H]1[C@@H]3Cc1ccc(O)cc1` (relative stereo) [IB-536] yielded an IC50 of 10 to 30 µM. Work on `CCCCCCNC(=O)[C@@]12C[C@@H]3CN(CC(N)=O)[C@@H]([C@@H]3CN1)[C@H]2Cc1cccc2ccccc12` (relative stereo) [IF-110] yielded an IC50 of less than 5 µM. `O=C(O)CCN1CC2CC3CNC2(C(=O)NCc2ccc(O)cc2)C1C3CCc1ccccc1` (stereo not drawn) [IB-515] showed an IC50 of 10 to 30 µM. In the case of `CC(C)CNC(=O)[C@@]12C[C@@H]3CN(Cc4cccc5ccccc45)[C@@H]([C@@H]3CN1)[C@H]2CC(C)C` (relative stereo) [IF-739], the IC50 is reported as less than 5 µM. In the case of `NC(=O)CCNC(=O)C12CC3CN(Cc4cccc5ccccc45)C(C3CN1)C2Cc1ccc(O)cc1` (stereo not drawn) [IF-435], the IC50 is reported as less than 5 µM. `CC(C)CC[C@@H]1[C@@H]2CN[C@@]3(C(=O)NCCc4ccccc4)[C@@H](C2)CN(CCO)[C@@H]13` (relative stereo) [IB-531] showed an IC50 of 10 to 30 µM. With `CC(C)NC(=O)[C@]12NC[C@@H]3C[C@H]1CN(CCCNC(=N)N)[C@H]2[C@@H]3CCc1ccccc1` (relative stereo) [IB-179] the IC50 was 10 to 30 µM. In the case of `CC(C)CN1C[C@H]2C[C@]3(C(=O)NCc4ccccc4)NC[C@H]2[C@H]1[C@H]3Cc1cccc2ccccc12` (relative stereo) [IF-753], the IC50 is reported as 10 to 30 µM. `CC(C)CCN1C[C@@H]2C[C@H]3CN[C@]2(C(=O)NCCC(N)=O)[C@@H]1[C@@H]3Cc1cccc2ccccc12` (relative stereo) [IB-703] was tested, and the IC50 was less than 5 µM. In the case of `O=C(NCc1ccc(F)cc1)C12NCC3CC1CN(CCO)C2C3CCc1ccccc1` (stereo not drawn) [IB-492], the IC50 is reported as less than 5 µM. Work on `NC(=O)CCNC(=O)C12NCC3CC1CN(Cc1ccc(O)cc1)C2C3Cc1cccc2ccccc12` (stereo not drawn) [IB-743] yielded an IC50 of less than 5 µM. `O=C(NCc1ccc(O)cc1)[C@@]12C[C@@H]3CN(CCc4ccccc4)[C@@H]([C@@H]3CN1)[C@H]2Cc1ccccc1` (relative stereo) [IF-469] was tested, and the IC50 was 10 to 30 µM. Molecule `CC(C)C[C@@H]1[C@@H]2CN[C@@]3(C(=O)NCCO)[C@@H](C2)CN(CCc2ccccc2)[C@@H]13` (relative stereo) [IB-641] has an IC50 of 10 to 30 µM. `CC(C)C[C@@H]1[C@@H]2[C@@H]3CN[C@@]1(C(=O)NCc1ccccc1)C[C@@H]3CN2Cc1ccc(F)cc1` (relative stereo) [IF-650] gave an IC50 of less than 5 µM. `CN1CC2CC3C=NC2(C(=O)NCCc2cccc4cccnc24)C1C3Cc1ccccc1` (stereo not drawn) [IIB-329] gave an IC50 of less than 5 µM. With `CC(C)CC[C@@H]1[C@@H]2[C@@H]3CN[C@@]1(C(=O)NCc1cccc4ccccc14)C[C@@H]3CN2CC(N)=O` (relative stereo) [IF-84] the IC50 was 10 to 30 µM. `CC(C)CC[C@@H]1[C@@H]2[C@@H]3CN[C@@]1(C(=O)NCCc1ccccc1)C[C@@H]3CN2CC1CCCCC1` (relative stereo) [IF-717] was tested, and the IC50 was less than 5 µM. `CC(C)C[C@@H]1[C@@H]2CN[C@@]3(C(=O)NCCO)[C@@H](C2)CN(Cc2cccc4ccccc24)[C@@H]13` (relative stereo) [IB-643] was tested, and the IC50 was 10 to 30 µM. In the case of `CC(C)CC1C2C3C=NC1(C(=O)NCc1ccccc1)CC3CN2Cc1cccc(Cl)c1` (stereo not drawn) [IIF-84], the IC50 is reported as 5 to 10 µM. In the case of `CC(C)CCC1C2CNC3(C(=O)NC(C)C)C(C2)CN(Cc2ccc(O)cc2)C13` (stereo not drawn) [IB-501], the IC50 is reported as less than 5 µM.

Same assay, conditions: read-out: IC50
For `CC(C)CCN1CC2CC3(C(=O)NCc4ccccc4)NCC2C1C3Cc1ccccc1` (stereo not drawn) [IF-9], the IC50 was 15.6 µM.
